# Test results as given in PMC3996367, “Profiling of drugs and environmental chemicals for functional impairment of neural crest migration in a novel stem cell-based test battery” (Archives of Toxicology, 2014).
# “And” between values parts separate entries of the source, which are not always exact repeats. Equal entries are not always repeated. Where two headings read alike, the source gives them in different places.
# B1: granulocyte colony-stimulating factor (protein, UniProt P09919 31-207, looked up)
# Granulocyte …: TPLGPASSLPQSFLLKCLEQVRKIQGDGAALQEKLVSECATYKLCHPEELVLLGHSLGIPWAPLSSCPSQALQLAGCLSQLHSGLFLYQGLLQALEGISPELGPTLDTLQLDVADFATTIWQQMEELGMAPALQPTQGAMPAFASAFQRRAGGVLVASHLQSFLEVSYRVLRHLAQP
# How the values were obtained:
# [1] = for Free conc. (FCC; free plasma concentration): calculated from CC and plasma protein binding
# [2] = cited from earlier work; for Clinical conc. (CC; total/maximal plasma concentration): human plasma, literature data mining, ref per-compound studies in Fig. S4; for Plasma concentration range / Plasma concentration, average: ref Laske et al. (2009)
# plasma proteins = conditions: cited from earlier work
# [3] = test system: migration of hESC-derived neural crest cells (NCC); assay: MINC assay (migration inhibition of neural crest cells, UKN2); conditions: 48 h, in a non-cytotoxic concentration range
# [4] = head of Fig. S4 entry; compiled from in vivo/in vitro studies and simulations
# fetal growth = test system: fetal growth; design: method as in Govarts et al. (2012); conditions: per 1 µg/l increase in cord serum PCB-153; ref Govarts et al. (2012); cited from earlier work
# [5] = cited from earlier work; for Geometric mean concentration in maternal serum: ref Eskenazi et al. (2013); for Average concentration in breast milk: ref Gascon et al. (2012)
# [6] = test system: mESC-derived neural stem cells (mESCn)
# [7] = test system: hESC-derived neural crest cells (NCC)
# rats [8] = conditions: single oral dose to dams on gestational day 6, Wistar rat; ref Kuriyama et al. (2005); cited from earlier work
# whole embryo culture = test system: whole embryo culture; design: method as in Piersma et al. (2008); conditions: ref Piersma et al. (2008); cited from earlier work
# [9] = test system: embryonic stem cell differentiation; design: method as in de Jong et al. 2009; conditions: ref de Jong et al. 2009; cited from earlier work
# rats [10] = conditions: single dose, oral gavage, adult male Long-Evans rats; ref Crofton et al. (2011); cited from earlier work
# rat fetuses = test system: rat fetuses; design: method as in Machera 1995; conditions: cleft palate and hydrocephaly as most common malformations; ref Machera 1995; cited from earlier work
# zebrafish embryos = test system: zebrafish embryos; design: method as in Hermsen et al. (2012); conditions: pericardial edema, malformations of head and heart; ref Hermsen et al. (2012); cited from earlier work
# rat whole embryo culture = test system: rat whole embryo culture; design: method as in Robinson et al. (2012); conditions: 48 hours, ref Robinson et al. (2012), cited from earlier work
# dopaminergic PC12 cells = test system: dopaminergic PC12 cells; design: method as in Heusinkveld et al. (2013); conditions: ref Heusinkveld et al. (2013); cited from earlier work
# [11] = test system: neural embryonic stem cell test (ESTn); design: method as in Theunissen et al. (2012); conditions: ref Theunissen et al. (2012); cited from earlier work
# [12] = 50 patients with Alzheimer's disease
molecule,measurement,setting,value
CCC[C@H](NC(=O)[C@@H]1[C@H]2CCC[C@H]2CN1C(=O)[C@@H](NC(=O)[C@@H](NC(=O)c1cnccn1)C1CCCCC1)C(C)(C)C)C(=O)C(=O)NC1CC1 [Telaprevir],Free conc. (FCC; free plasma concentration),[1],1600 nM
same,Clinical conc. (CC; total/maximal plasma concentration),[2],5100 nM
CN(C)CCCN1c2ccccc2Sc2ccc(Cl)cc21 [Chlorpromazine],Bound to plasma protein albumin,plasma proteins; plasma,around 85%
C/C(O)=C(\C#N)C(=O)Nc1ccc(C(F)(F)F)cc1 [Teriflunomide],Free conc. (FCC; free plasma concentration),[1],54.0 nM
same,Clinical conc. (CC; total/maximal plasma concentration),[2],10800 nM
same,Portion of free teriflunomide,"plasma proteins; almost constant, ref not given",0.5%
same,Bound to plasma proteins,"plasma proteins; primarily to albumin, no unit and ref not given",> 99.3
Neuregulin,Clinical conc. (CC; total/maximal plasma concentration),[2],6300 nM
Erythropoietin,Clinical conc. (CC; total/maximal plasma concentration),[2],0.3 nM
COC1=C2C[C@@H](C)C[C@H](OC)[C@H](O)[C@@H](C)/C=C(\C)[C@H](OC(N)=O)[C@@H](OC)/C=C\C=C(/C)C(=O)NC(=CC1=O)C2=O [Geldanamycin],Clinical conc. (CC; total/maximal plasma concentration),[2],800 nM
same,Effect on NCC migration in concentration-response study,[3],concentration-dependent effect
O=C(NC[C@H]1CN(c2ccc(N3CCOCC3=O)cc2)C(=O)O1)c1ccc(Cl)s1 [Rivaroxaban],Free conc. (FCC; free plasma concentration),[1],41.4 nM
same,Clinical conc. (CC; total/maximal plasma concentration),[2],689.6 nM
same,Unbound fraction in plasma,"plasma proteins; PBPK model study, ref Grillo et al. (2012)",6%
O=C(Nc1c(Cl)cncc1Cl)c1ccc(OC(F)F)c(OCC2CC2)c1 [Roflumilast],Free conc. (FCC; free plasma concentration),[1],0.2 nM
same,Clinical conc. (CC; total/maximal plasma concentration),[2],18.0 nM
Clc1cc(Cl)c(-c2cc(Cl)c(Cl)cc2Cl)cc1Cl [PCB-153],DT concentration,[4],388 pM
same,Reduction of birth weight,fetal growth,150 g
same,Median cord serum concentration,"[5]; cohort of 7990 women, ref Govarts et al. (2012)",140 ng/l and 388 pM
same,Maternal serum concentration,[5]; ref Covaci et al. (2002),670 ± 350 pg/mL
same,Effect on NCC migration in concentration-response study,[3],concentration-dependent effect
CC[C@H](C)[C@@H]1NC(=O)[C@H](Cc2ccc(O)cc2)NC(=O)[C@@H](N)CSSC[C@@H](C(=O)N2CCC[C@H]2C(=O)N[C@@H](CC(C)C)C(=O)NCC(N)=O)NC(=O)[C@H](CC(N)=O)NC(=O)[C@H](CCC(N)=O)NC1=O [Oxytocin],Highest non-cytotoxic conc. in HEK293,HEK293 cells; 48 h,> 0.1 µM
same,Highest non-cytotoxic conc. in mESCn,[6]; 48 h,> 100.0 µM
same,Concentration for hit finding in NCC (highest non-cytotoxic concentration in the UKN2 test system),[7]; 48 h,100 nM
same,Free conc. (FCC; free plasma concentration),[1],2.0 nM
same,Clinical conc. (CC; total/maximal plasma concentration),[2],2.0 nM
same,Binding state in plasma,plasma proteins; ref Fabian et al. (1969),unbound
N[C@@H](CC(=O)N1CCn2c(nnc2C(F)(F)F)C1)Cc1cc(F)c(F)cc1F [Sitagliptin],Free conc. (FCC; free plasma concentration),[1],1200 nM
same,Clinical conc. (CC; total/maximal plasma concentration),[2],1900 nM
same,Binding to plasma proteins,plasma proteins; ref Herman et al. (2006a),38%
"COC(=O)c1ccc2c(c1)NC(=O)/C2=C(\Nc1ccc(N(C)C(=O)CN2CCN(C)CC2)cc1)c1ccccc1 [Nintedanib/ BIBF 1120, Nintedanib]",Free conc. (FCC; free plasma concentration),[1],70.8 nM
same,Clinical conc. (CC; total/maximal plasma concentration),[2],74.2 nM
"Brc1ccc(Oc2cc(Br)c(Br)cc2Br)c(Br)c1 [PBDE-99, 2,2′,4,4′,5-pentabromodiphenyl ether]",Dose causing hyperactivity and impaired spermatogenesis in offspring,rats [8],0.11 µmol/kg
same,Geometric mean concentration in maternal serum,[5]; converted,25 ng/l and 44 pM
same,Average concentration in breast milk,[5]; converted,1 ng/l and 1.8 pM
same,Geometric mean concentration in maternal serum,[5],4.5 ng/g
same,Average concentration in breast milk,[5],0.27 ng/g lw
same,Effect on NCC migration in concentration-response study,[3],concentration-dependent effect
CCCc1nn(C)c2c(=O)[nH]c(-c3cc(S(=O)(=O)N4CCN(C)CC4)ccc3OCC)nc12 [Sildenafil],Free conc. (FCC; free plasma concentration),[1],11.0 nM
same,Plasma protein binding,plasma proteins; ref Purvis et al. (2002),approximately 95%
C[C@]12CC[C@H](O)CC1=CC[C@@H]1[C@@H]2CC[C@]2(C)C(c3cccnc3)=CC[C@@H]12 [Abiraterone],Highest non-cytotoxic conc. in HEK293,HEK293 cells; human,2.0 µM
same,Highest non-cytotoxic conc. in mESCn,[6]; mouse,0.97 µM
same,Concentration for hit finding in NCC (highest non-cytotoxic concentration in the UKN2 test system),[7]; human,2000 nM
same,Free conc. (FCC; free plasma concentration),[1],7.8 nM
same,Clinical conc. (CC; total/maximal plasma concentration),[2],647.3 nM
same,Bound to plasma proteins,plasma proteins; ref Gurav et al. (2012),> 98.8%
same,Effect on NCC migration in concentration-response study,[3],concentration-dependent effect
COCC(=O)O [Methoxyacetic acid],DT concentration,[4],7.5e+09 pM
same,BMC5,whole embryo culture,1.6 mM
same,BMC50,[9],2.4 mM
same,Estimated human blood concentration,"[5]; due to permitted occupational EGME exposure, ref Welsch 2005",approximately 60 μM
same,Human exposure concentration,"[5]; head of Fig. S4 entry, ref studies in Fig. S4",60 µM
CC(C)(C)C(O)C(Oc1ccc(Cl)cc1)n1cncn1 (stereo not drawn) [triadimenol],"Dose causing transient CNS toxicity (hyperactivity, stereotyped behavior)",rats [10],50 mg/kg
COCCCOc1cc(C[C@@H](C[C@H](N)[C@@H](O)C[C@H](C(=O)NCC(C)(C)C(N)=O)C(C)C)C(C)C)ccc1OC [Aliskiren],Free conc. (FCC; free plasma concentration),[1],166 nM
same,Clinical conc. (CC; total/maximal plasma concentration),[2],326.5 nM
same,Protein binding,"plasma proteins; moderate, ref Vaidyanathan et al. 2008",47-51%
Cc1ccc(NC(=O)c2ccc(CN3CCN(C)CC3)cc2)cc1Nc1nccc(-c2cccnc2)n1 [Imatinib],Concentration for hit finding in NCC (highest non-cytotoxic concentration in the UKN2 test system),[7]; human,5000 nM
same,Effect on NCC migration in concentration-response study,[3],concentration-dependent effect
Nc1ccc(S(=O)(=O)Nc2ncccn2)cc1 [Sulfadiazine],Highest non-cytotoxic conc. in HEK293,HEK293 cells; human,100.0 µM
same,Highest non-cytotoxic conc. in mESCn,[6]; mouse,> 50.0 µM
same,Concentration for hit finding in NCC (highest non-cytotoxic concentration in the UKN2 test system),[7]; human,50000 nM
same,Clinical concentration range (average Cmax),"[2]; human, in vivo",50-110
same,Cmax,"[2]; human, in vivo",200000 to 440000 nM
same,Degree of protein binding,plasma proteins; human,50%
CC(C1CC1)C(O)(Cn1cncn1)c1ccc(Cl)cc1 (stereo not drawn) [Cyproconazole],DT concentration,[4],6.5e+07 to 1.18e+08 pM
same,Suggested NOEL,rat fetuses,20 mg/kg
same,Concentration increasing teratogenic effects,zebrafish embryos,65000 nM
same,Malformations,rat whole embryo culture; 1 mM,50%
same,Malformations,rat whole embryo culture; 1.7 mM,100%
same,Inhibitory concentration on depolarization-evoked intracellular calcium concentration,dopaminergic PC12 cells,65 µM
same,Concentration reducing cell viability to 80%,[11],117600 nM
same,Effect on NCC migration in concentration-response study,[3],concentration-dependent effect
B1,Clinically relevant concentration,[1]; calculated from Laske et al. (2009) data,25 pg/mL
same,Plasma concentration range,[2]; 50 healthy controls,5 to 80 pg/mL
same,"Plasma concentration, average",[2]; 50 healthy controls,~ 28 pg/ml
same,Plasma concentration range,[2]; [12],10 to 40 pg/mL
same,"Plasma concentration, average",[2]; [12],~ 20 pg/ml
same,Clinical conc. (CC; total/maximal plasma concentration),[2],0.0013 nM
